Test results published in patent US7566808B2, “Management of ophthalmologic disorders, including macular degeneration” (President and Fellows of Harvard College, priority 2004, dated 2009).

Tested on: bovine retinal pigment epithelial membrane system (11-cis-retinol formation)
Assay: 11-cis-retinol formation in RPE membranes (IMH activity / RPE65 function)
Format: biochemical
Details: 60 μM, data not shown
Procedure: A control reaction mixture without any inhibitor was also incubated at room temperature for 15 min. At the end of the 15 min incubation, all-trans-retinol [11-12-^3H2] (0.2 μM) was added to the reaction mixtures (100 mM Tris pH 8.0, […] of RPE protein, 0.2% BSA 100 μM of DPPC, 1 mM of DTT and 0.2 μM all-trans-retinol [11-12-^3H2]) and incubated at room temperature for 30 min. At the end of this 30 minutes of incubation, an aliquot of the reactions were quenched to verify the equal addition of all-trans-retinol [11,12-^3H2] and the effect of these inhibitors on LRAT. After this the control reaction mixture was incubated with atRA (60 & 6 μM), 13cRA (60 & 6 μM) or 4-HPR (60 & 6 μM) for 15 min. Now all the reaction mixtures were incubated with 30 μM of apo-rCRALBP (100 mM Tris pH 8.0, 7.7 μg of RPE protein, 0.2% BSA 100 μm of DPPC, 1 mM of DTT 30 μM apo-rCRALBP and 0.2 μM all-trans-retinol [11-12-^3H2]) at 37° C. for 30 minutes. At the end of this incubation period the 200 μL reaction mixture was quenched by the addition of 750 μL ice cold methanol after which 100 μL of 1M sodium chloride solution was added, and 500 μl hexane (containing butylated hydroxy toluene at 1 mg/mL) was added to effect extraction of the retinoids. The retinoids were analyzed as previously described (27). The amount of 11-cis-retinol formed was used as a measurement of IMH activity. All experiments were performed in triplicate and the average values of these measurements were used for analysis.
A control reaction mixture without any inhibitor was also incubated at room temperature for 15 min. At the end of the 15 min incubation, all-trans-retinol [11-12-^3H2] (0.2 μM) was added to the reaction mixtures (100 mM Tris pH 8.0, 76.7 μg of RPE protein, 0.2% BSA 100 μM of DPPC, 1 mM of DTT and 0.2 μM all-trans-retinol [11-12-^3H2]) and incubated at room temperature for 30 min. […] The retinoids were analyzed as previously described (27). […]

With `CC1=C(/C=C/C(C)=C/C=C/C(C)=C\C(=O)O)C(C)(C)CCC1` [13-cis-retinoic acid, reference compound] the “inhibition of 11-cis-retinol formation, membranes pre-incubated with vitamin A before inhibitor” value was “not susceptible to inhibition”.
